≈ marks a conversion by molar mass, not a printed value.
Experiments:
Format in all cases: cell-based
[1] = tested on: Escherichia coli (RCMB 0103); assay: Antimicrobial screening, disc diffusion; conditions: compounds isolated from Cunninghamella elegans
Description: (§1) The alcoholic extracts obtained were used for testing their antimicrobial activity. Each extract (0.5 g) was dissolved in 10 ml water. Same concentrations for the successive extracts (using diethyl ether, chloroform, ethyl acetate and n-butanol) were also prepared.
(§2) The representatives of Gram negative bacteria, namely Salmonella typhimuium (RCMB 0104), Escherichia coli (RCMB 0103), Pseudomonas aeruginosa (RCMB 0102) and Gram positive bacteria, namely Bacillus subtilis (RCMB 0107), Staphylococcus aureus (RCMB 0106), Streptococcus pyogenes (RCMB 0109), unicellular fungi, namely Candida albicans (RCMB 5002) and filamentous fungi, namely Aspergillus fumigatus (RCMB 2003) and Penicllium expansum (RCMB 1006) were used as test organisms (RCMB: The Regional Center for Mycology and Biotechnology, Al-azhar University Nasser City, Cairo, Egypt).
(§3) For antimicrobial screening the well known disc diffusion and agar well diffusion methods were used, together with the determination of minimum inhibitory concentration (MIC), see Duguid et al., Microbial Infections, The English Language Book Society, Churchill Livingston, Edingburgh, London, 1978; vol. 1, page 110.
(§4) Disc diffusion method: The agar disc diffusion method is employed for the determination of antimicrobial activities of the extracts of the investigated fungal species. Sterilized paper discs (Whatman No. 1) ([…]) were separately soaked in the extracts and transferred onto the surface of growth media seeded with the test organism. After incubation period, following suitable conditions for the test organism, the diameter of the inhibition zone around the discs was measured in millimeters. The obtained result was the mean of three experiments.
(§5) Each fungal species was grown on malt extract media at 28±2° C. for 14 days. The metabolites of the fungal species were screened for antimicrobial activity. The inhibition zones around each disc were measured, in millimeter, and recorded (Tables 1).

[2] = tested on: Candida albicans (RCMB 5002); assay: Antimicrobial screening, disc diffusion; conditions: compounds isolated from Cunninghamella elegans
Description: as §1, §2, §3, §4, §5

[3] = tested on: Bacillus subtilis (RCMB 0107); assay: Antimicrobial screening, disc diffusion; conditions: compounds isolated from Cunninghamella elegans
Description: as §1, §2, §3, §4, §5

[4] = tested on: Streptococcus pyogenes (RCMB 0109); assay: Antimicrobial screening, disc diffusion; conditions: compounds isolated from Cunninghamella elegans
Description: as §1, §2, §3, §4, §5

[5] = tested on: Pseudomonas aeruginosa (RCMB 0102); assay: Antimicrobial screening, disc diffusion; conditions: Pseudomonas aeurginosa; compounds isolated from Cunninghamella elegans
Description: as §1, §2, §3, §4, §5

[6] = tested on: Penicllium expansum (RCMB 1006); assay: Antimicrobial screening, disc diffusion; conditions: Penicillium expansum; compounds isolated from Cunninghamella elegans
Description: as §1, §2, §3, §4, §5

[7] = tested on: Staphylococcus aureus (RCMB 0106); assay: Antimicrobial screening, disc diffusion; conditions: compounds isolated from Cunninghamella elegans
Description: as §1, §2, §3, §4, §5

[8] = tested on: Aspergillus fumigatus (RCMB 2003); assay: Antimicrobial screening, disc diffusion; conditions: compounds isolated from Cunninghamella elegans
Description: as §1, §2, §3, §4, §5

[9] = tested on: Salmonella typhimuium (RCMB 0104); assay: Antimicrobial screening, disc diffusion; conditions: Salmonella typhimuim; compounds isolated from Cunninghamella elegans
Description: as §1, §2, §3
as §4, with “millimeters.” for “millimeters. The obtained result was the mean of three experiments.”
Each fungal species was grown on malt extract media at 28±2° C. for 14 days. The metabolites of the fungal species were screened for antimicrobial activity.

Staphylococcus aureus = assay: Minimum inhibitory concentration, agar well diffusion; conditions: against Staphylococcus aureus
Source text: as §3
Agar well diffusion method: On the other hand, the agar well diffusion method was employed for determination of the minimum inhibitory concentration (MIC). The test organisms were separately seeded in the agar medium. The wells (10 mm in diameter) were cut from the agar and […] (different concentrations) was transferred into them. After incubation period, following suitable conditions for the test organism, the diameter of the inhibition zone around the discs was measured in millimeters. The obtained result was the mean of three experiments.
The minimum inhibitory concentration (MIC) of Cunninghamella blakesleeana, C. elegans, C. homothallica and successive extracts and isolated compounds of Cunninghamella elegans against Staphylococcus aureus was determined.
Minimum inhibitory concentration (MIC): The lowest concentration of an antimicrobial agent that will inhibit a visible growth of a microorganism after overnight incubation.

| Structure (SMILES) | Diameter of inhibition zone [1] | Diameter of inhibition zone [2] | Diameter of inhibition zone [3] | Diameter of inhibition zone [4] | Diameter of inhibition zone [5] | Diameter of inhibition zone [6] | Diameter of inhibition zone [7] | Diameter of inhibition zone [8] | Diameter of inhibition zone [9] | Minimum inhibitory concentration (Staphylococcus aureus) | MIC (Staphylococcus aureus; read-out: Minimum inhibitory concentration) |
| --- | --- | --- | --- | --- | --- | --- | --- | --- | --- | --- | --- |
| O=c1ccn([C@@H]2O[C@H](CO)[C@@H](O)[C@H]2O)c(=O)[nH]1 [Compound 5, pyrimidine-2,4-dion, 1-ribose] | 00.0 mm | 00.0 mm | 00.0 mm | 00.0 mm | 00.0 mm | 00.0 mm | 11.0 ± 0.1 mm | 00.0 mm | 00.0 mm | 150 µg/mL (≈ 614 µM) |  |
| C=C(CC(=O)O)C(=O)OC [Compound 8, 3-(methoxycarbonyl)-but-3-enoic acid] | 00.0 mm | 00.0 mm | 00.0 mm | 00.0 mm | 00.0 mm | 00.0 mm | 07.0 ± 0.5 mm | 00.0 mm | 00.0 mm |  | 210 µg/mL (≈ 1460 µM) |

Reference: US20130224239A1, “ALCOHOLIC EXTRACT OF FUNGI OF GENUS […] AND USE THEREOF” (KING SAUD UNIVERSITY, priority 2011, published 2013)
